Measurements as given in patent US12714706B2, “Methods of treating small cell lung cancer with lurbinectedin formulations” (PHARMA MAR, S.A., priority 2019, dated 2026).
≈ marks a conversion by molar mass, not a printed value.

What was measured:
SCLC = experiment: Phase 2 trial of lurbinectedin monotherapy in SCLC: antitumor activity (ORR, DOR, PFS, OS; RECIST v1.1); type: in vivo, human
Description: A clinical study of lurbinectedin monotherapy for patients collectively afflicted with SCLC who have refractory or resistant disease, as defined herein, was carried out. In this clinical single-arm, multi-center, open-label, phase 2 trail, a cohort of 105 patients, who had measurable disease, including patients whose SCLC was unresponsive to first-line platinum-containing chemotherapy (cisplatin, carboplatin or oxaliplatin) (refractory) and patients whose SCLC recurred within or equal to 90 days after cessation of first-line therapy (resistant), were treated with lurbinectedin at a dosage of 3.2 mg/m^2 given intravenously over a period of 1 hour every 21 days. Lurbinectedin was provided as a sterile isotonic aqueous solution for IV infusion as described below.
Starting dose was 3.2 mg/m^2. Dose was capped at body surface area of […] (e.g. dose not allowed to exceed 6.4 mg). Patients received lurbinectedin i.v. as a one-hour infusion on Day 1 every three weeks until disease progression or unacceptable toxicity. Three weeks was defined as one treatment cycle.
The primary objective of this study was to assess the antitumor activity of lurbinectedin in terms of overall response rate (ORR) as primary endpoint and supported by duration of response (DOR) as secondary endpoint. ORR was assessed using RECIST v1.1. on a set of measurable lesions identified at baseline as target lesions or as non-target lesions (if any), and followed until disease progression (PD) by an appropriate method.
Radiological tumor assessment (CT scan or MRI) was performed at baseline, and every 6 weeks from the onset of the study treatment until cycle 6 or evidence of PD, and every 9 weeks thereafter. If an objective response was observed, according to RECIST v1.1., it had to be confirmed by the same method at least four weeks after the date of the first documentation of response.
ORR was defined as the percentage of evaluable patients with a confirmed response, either complete (CR) or partial response (PR), from the start of treatment to the date of progression or the start of a subsequent therapy or end of patients follow-up according to RECIST v1.1. DOR was calculated […], recurrence, or death due to any cause in the responder patients. The date of response, the date of radiological or clinical PD, according to the investigator assessment and the independent assessment by an independent review committee (IRC), and the date of death was registered and documented, as appropriate. The IRC determined the patient's best response and assigned the date of first documentation of response and progression/censoring according to RECIST v1.1.
Counts and percentages, with their corresponding exact 95% confidence intervals were calculated for the binominal endpoints (i.e. ORR, clinical benefit). Time-to-event variables (OS, PFS, and DOR) and their set time estimates (i.e. PFS4/6 and OS6/12) were analyzed according to Kaplan-Meier method. The evaluation of the efficacy endpoints evaluated by IA and IRC were analyzed and compared.

[1] = Maximum solubility of lurbinectedin in different molarities of lactic acid; type: physicochemical; details: lactic acid solution, aqueous buffer
Description: As such, in embodiments, a concentrated lurbinectedin solution is prepared in organic acid before addition of other excipients. In preferred embodiments, the organic acid has a pH less than 4, preferably less than 3.5, more preferably less than 3, or around 3. The maximum solubility of lurbinectedin was investigated in different molarities of the organic acid lactic acid. […] In a preferred embodiment, lurbinectedin is dissolved in an organic acid with a molarity of around 0.1M to 0.5M, preferably around 0.2M to 0.4M, more preferably around 0.3M organic acid. An exemplary molarity is 0.31M organic acid.

advanced solid tumors = experiment: Phase 1 dose escalation of lurbinectedin plus irinotecan: MTD, RD and dose limiting toxicities; type: in vivo, human
Description: A clinical study of lurbinectedin in combination with irinotecan for patients afflicted with solid tumors was carried out. […] Patients were enrolled following a standard 3+3 dose escalation design. Phase Ib/II expansion part at the recommended dose (RD) was performed to explore efficacy in indications where antitumor activity signal was observed.
Three weeks was defined as one treatment cycle.
Primary outcome measures were (1) maximum tolerated dose (MTD) and (2) recommended dose (RD). MTD was defined as lowest dose explored during dose escalation which one third or more of evaluable patients develop DLT in Cycle 1. RD was defined as highest dose level explored during dose escalation in which fewer than one third of evaluable patients develop DLT during Cycle 1.

[2] = Maximum solubility of lurbinectedin in various buffers pH 4 (impact of buffer molarity)
Description: Bulk solutions of phosphate, acetate, citrate, lactate and succinate buffers were prepared to determine maximum solubility of lurbinectedin.

[3] = chemotherapy-free interval less than 90 days (resistant)
[4] = lurbinectedin D1 q3w with irinotecan 75 mg/m2 D1 & D8 q3w

**Q.** For `COc1ccc2[nH]c3c(c2c1)CCN[C@]31CS[C@@H]2c3c(OC(C)=O)c(C)c4c(c3[C@H](COC1=O)N1[C@@H]2[C@H]2c3c(cc(C)c(OC)c3O)C[C@@H]([C@@H]1O)N2C)OCO4` [lurbinectedin, Lurbinectedin], which “Median overall survival of patients with initial objective response (post-hoc)” value (SCLC; 37 responders, overall population) is on record?
**A.** Its value is 12.6 months.

**Q.** And the “Duration of response, median” value (SCLC; IRC assessment, overall)?
**A.** The value was 5.1 months.

**Q.** What about the “Overall response rate (CR + PR)” value (SCLC; Investigator assessment, resistant disease (CTFI <90 days, n = 45)) of the same compound?
**A.** The value was 22.2%.

**Q.** And the “Patients alive at 1 year after the first dose” value (SCLC; chemotherapy-free interval less than 90 days (n = 45))?
**A.** The value was 16%.

**Q.** What about the Median overall survival (SCLC; [3]) of the same compound?
**A.** The Median overall survival was 5.0 months.

**Q.** What about the Median progression-free survival (SCLC; [3]) of the same compound?
**A.** The Median progression-free survival was 2.6 months.

**Q.** And the “Disease progression with new lesions in the CNS” value (SCLC; of 94 patients who discontinued lurbinectedin)?
**A.** Its value is 9%.

**Q.** And the “Median overall survival of patients with initial objective response (post-hoc)” value (SCLC; responders with resistant disease)?
**A.** The value was 10.9 months.

**Q.** What about the solubility ([1]; 0.05M lactic acid) of the same compound?
**A.** Its solubility is 7200 µg/mL (≈ 9.17 mM).

**Q.** And the solubility ([1]; 0.5M lactic acid)?
**A.** The solubility was 90400 µg/mL (≈ 115 mM).

**Q.** What about the DLTs/Evaluable patients (advanced solid tumors; Dose Level 1: lurbinectedin 1.0 mg/m2 D1 + irinotecan 75 mg/m2 D1 & D8, q3w) of the same compound?
**A.** Its DLTs/Evaluable patients is 1/6.

**Q.** What about the DLTs/Evaluable patients (advanced solid tumors; Dose Level 2: lurbinectedin 1.5 mg/m2 D1 + irinotecan 75 mg/m2 D1 & D8, q3w) of the same compound?
**A.** Its DLTs/Evaluable patients is 1/4.

**Q.** And the DLTs/Evaluable patients (advanced solid tumors; Dose Level 3 (without G-CSF): lurbinectedin 2.0 mg/m2 D1 + irinotecan 75 mg/m2 D1 & D8, q3w)?
**A.** Its DLTs/Evaluable patients is 4/11.

**Q.** What about the DLTs/Evaluable patients (advanced solid tumors; Dose Level 3* (with G-CSF): lurbinectedin 2.0 mg/m2 D1 + irinotecan 75 mg/m2 D1 & D8, q3w) of the same compound?
**A.** Its DLTs/Evaluable patients is 3/12.

**Q.** And the DLTs/Evaluable patients (advanced solid tumors; Dose Level 4* (with G-CSF): lurbinectedin 2.4 mg/m2 D1 + irinotecan 75 mg/m2 D1 & D8, q3w)?
**A.** The DLTs/Evaluable patients was 2/3.

**Q.** What about the “MTD with G-CSF (lurbinectedin dose)” value (advanced solid tumors; [4]) of the same compound?
**A.** Its value is 2.4 mg/m2.

**Q.** What about the “MTD without G-CSF (lurbinectedin dose)” value (advanced solid tumors; [4]) of the same compound?
**A.** Its value is 2.0 mg/m2.

**Q.** What about the “RD with G-CSF (lurbinectedin dose)” value (advanced solid tumors; [4]) of the same compound?
**A.** Its value is 2.0 mg/m2.

**Q.** What about the Lurbinectedin maximum solubility ([2]; Monopotassium phosphate buffer pH 4, 0.06-01 M) of the same compound?
**A.** The Lurbinectedin maximum solubility was 320 µg/mL.

**Q.** What about the Lurbinectedin maximum solubility ([2]; Sodium acetate buffer pH 4, 0.06-01 M) of the same compound?
**A.** The Lurbinectedin maximum solubility was 860 µg/mL.

**Q.** What about the Lurbinectedin maximum solubility ([2]; Sodium lactate buffer pH 4, 0.06-01 M) of the same compound?
**A.** The Lurbinectedin maximum solubility was 920 µg/mL.
